PubChem BioAssay (NCI)
“And” between values parts separate entries of the source, which are not always exact repeats. Equal values may be shown once.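 Cells were grown in 96-well plates and exposed to each compound for 48 hours at five concentrations; endpoints were interpolated linearly between bracketing concentrations, or set to the highest concentration if not reached. GI50 is the concentration that inhibits growth by half. TGI is the concentration that stops growth completely.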

Legend:
Assay in all cases: NCI anticancer screen, dose series, 48 h
[1] = test system: EKVX NSCLC
[2] = test system: OVCAR-5 ovarian
[3] = test system: NCI-H23 lung
[4] = test system: SF-295 CNS
[5] = test system: HOP-62 NSCLC
[6] = test system: HCT-15 colon
[7] = test system: SK-OV-3 ovarian
[8] = test system: NCI-H522 lung
[9] = test system: MOLT-4 leukemia
[10] = test system: MDA-MB-231 breast

| Structure (SMILES) | TGI [1] | TGI [2] | TGI [3] | TGI [4] | TGI [5] | TGI [6] | TGI [7] | TGI [8] | TGI [9] | TGI [10] | GI50 [1] | GI50 [2] | GI50 [3] | GI50 [4] | GI50 [5] | GI50 [6] | GI50 [7] | GI50 [8] | GI50 [10] | GI50 [9] |
| --- | --- | --- | --- | --- | --- | --- | --- | --- | --- | --- | --- | --- | --- | --- | --- | --- | --- | --- | --- | --- |
| COC1=C(OC)C(=O)C(C/C=C/c2c(Cl)nc3sccn23)=C(C)C1=O | 25.1 µM | 38 µM | 7.76 µM | 21 µM | 32.1 µM | > 100 µM | 33.8 µM | 33.2 µM | 8.97 µM | 25.3 µM | – | – | – | – | – | – | – | – | – | – |
| C[n+]1ccc2/c(=C\C#N)c3ccccc3n21 | 85.2 µM | > 100 µM | 40.7 µM | > 100 µM | > 100 µM | > 100 µM | 83 µM | 70.8 µM | > 100 µM | – | – | – | – | – | – | – | – | – | – | – |
| CC(=O)C(C(=O)C(=O)Nc1cc(Cl)c(Cl)cc1Cl)c1csc(N)n1 (stereo unspecified) | > 100 µM | > 100 µM | > 100 µM | > 100 µM | > 100 µM | > 100 µM | > 100 µM | > 100 µM | > 100 µM | – | – | – | – | – | – | – | – | – | – | – |
| O=[N+]([O-])c1cc(C(F)(F)F)cc2c1SC1=Nc3ccccc3CN12 | > 100 µM | > 100 µM | > 100 µM | > 100 µM | > 100 µM | > 100 µM | > 100 µM | > 100 µM | > 100 µM | – | – | – | – | – | – | – | – | – | – | – |
| Oc1ccccc1CNCc1ccccc1O | > 100 µM | > 100 µM | > 100 µM | > 100 µM | > 100 µM | > 100 µM | > 100 µM | > 100 µM | > 100 µM | > 100 µM | – | – | – | – | – | – | – | – | – | – |
| NCCNc1ccc(NCCN)c2c1C(=O)c1c(O)ccc(O)c1C2=O | 1.3 µM and 0.435 µM | 1.5 µM and 3.18 µM | 0.0442 µM and 0.0835 µM | 0.414 µM and 0.0618 µM | 0.147 µM and 0.0642 µM | 0.391 µM and 1.26 µM | – | 0.467 µM and 0.15 µM | 0.216 µM | 2.14 µM and 0.621 µM | 0.112 µM | 0.364 µM | < 0.0144 µM | < 0.0131 µM | 0.0189 µM | 0.0303 µM | 0.0151 µM | 0.018 µM | 0.146 µM | – |
| CCC/C=C/C=C\C(=O)O[C@@H]1[C@@H](C)[C@]2(O)[C@@H]3C=C(C)C(=O)[C@H]3CC(COC(C)=O)=C[C@H]2[C@@H]2C(C)(C)[C@]12OC(C)=O | 105 µM | 119 µM | 98.6 µM | 39.5 µM | 33.8 µM | 77.1 µM | 143 µM | > 89.6 µM | 85.2 µM | – | – | – | – | – | – | – | – | – | – | – |
| CCCc1cn2c(/C=N/N=C(N)N)c(-c3ccc([N+](=O)[O-])cc3)nc2s1 | 3.62 µM | 3.14 µM | 2.82 µM | 2.16 µM | 3.16 µM | 2.3 µM | 2.92 µM | – | 0.441 µM | 3.51 µM | – | – | – | – | – | – | – | – | – | – |
| Cn1cc(-c2csc(-c3cn(CCCN4CCCCC4)c4ccc(Br)cc34)n2)c2cccnc21 | – | 3.01 µM | 3.51 µM | – | – | – | 3.9 µM | – | – | 3.21 µM | – | 1.57 µM | 1.79 µM | – | – | – | 1.92 µM | – | 1.72 µM | – |
| Oc1c(Cl)c(Cl)c(O)c(-c2cnc(-c3ncc(-c4c(O)c(Cl)c(Cl)c(O)c4Cl)s3)s2)c1Cl | 61.5 µM | 36.4 µM | 39.9 µM | 41.9 µM | > 100 µM | 33.3 µM | > 100 µM | 5.43 µM | > 100 µM | 42.8 µM | – | – | – | – | – | – | – | – | – | – |
| O=C(N/N=C/c1cc(Cl)cc(Cl)c1[OH2+])c1ccncc1.O=S(=O)([O-])[O-].[Fe+2] | 29 µM | 49.8 µM | 51.3 µM | 35.3 µM | 34.9 µM | 35.2 µM | > 100 µM | 7.44 µM | 40 µM | – | – | – | – | – | – | – | – | – | – | – |
| CC(=O)OC1(C)CC(C)C(=O)C(C(O)CC2CC(=O)NC(=O)C2)C1 (stereo unspecified) | 0.37 µM and 0.631 µM | 0.293 µM and 2.4 µM | – | 0.03 µM | 0.0683 µM | 0.176 µM | 1.44 µM | 0.146 µM | 0.316 µM | 0.196 µM | – | – | – | – | – | – | – | – | – | – |
| COc1cccc2c1C(=O)c1c(O)c3c(c(O)c1C2=O)CC(O)(C(C)=O)CC3OC1OC(COC(C)=O)C(OC(C)=O)C(OC(C)=O)C1OC(C)=O (stereo unspecified) | 27.4 µM | 96.6 µM | – | 62.8 µM | 33.2 µM | > 100 µM | > 100 µM | > 100 µM | 36.9 µM | 63.7 µM | – | – | – | – | – | – | – | – | – | – |
| C[N+]1(C)C/C(=C\C=C\c2ccccc2)C(=O)/C(=C/C=C/c2ccccc2)C1 | > 87.4 µM | 54.7 µM | 34.4 µM | 81.7 µM | 46.3 µM | > 100 µM | 98.8 µM | 21.5 µM | 16.6 µM | 36.1 µM | – | – | – | – | – | – | – | – | – | – |
| CC(C)(C)c1cc(OCc2n[nH]c(=S)n2N)c(Cl)cc1OCc1n[nH]c(=S)n1N | > 100 µM | > 100 µM | > 100 µM | > 100 µM | > 100 µM | > 100 µM | > 100 µM | > 100 µM | > 100 µM | > 100 µM | – | – | – | – | – | – | – | – | – | – |
| COc1cc2c(cc1OC)-c1cc3cc(OC)c(OC)cc3c(C)[n+]1CC2 (tested in a mixture with another compound) | > 100 µM | > 100 µM | > 100 µM | > 100 µM | > 100 µM | > 100 µM | > 100 µM | > 100 µM | 48.1 µM | > 100 µM | – | – | – | – | – | – | – | – | – | – |
| CCn1c(=O)c2c3ccc(O)cc3[nH]c2c2ccc(O)cc21 | > 100 µM | > 100 µM | > 100 µM | > 100 µM | > 100 µM | > 100 µM | > 100 µM | > 100 µM | > 100 µM | > 100 µM | – | – | – | – | – | – | – | – | – | – |
| O=C(N/N=C/c1cc(Cl)cc(Cl)c1[O-])c1ccccc1O.O=C(N/N=C/c1cc(Cl)cc(Cl)c1[O-])c1ccccc1O.[Fe+2] | 41.9 µM | – | 31.6 µM | 33.9 µM | 44.4 µM | 19.3 µM | 39.1 µM | 23.8 µM | > 100 µM | – | 18.1 µM | – | 6 µM | – | – | – | – | – | – | 19.2 µM |
| CCN(CC)CCCNC(=O)c1ccccc1Nc1c(Cl)cccc1Cl | 25 µM | 24.3 µM | 30.9 µM | – | 24.2 µM | 25.2 µM | 27.7 µM | – | 27.9 µM | – | – | – | – | – | – | – | – | – | – | – |
| O=[N+]([O-])c1ccc(C2NC(=S)NC3c4cc([N+](=O)[O-])ccc4CCCC23)cc1 (stereo unspecified) | > 100 µM | > 100 µM | > 100 µM | > 100 µM | > 100 µM | > 100 µM | > 100 µM | > 100 µM | > 100 µM | > 100 µM | – | – | – | – | – | – | – | – | – | – |
| Nc1n[nH]c(N)n1 | > 7740 µM | > 9810 µM | > 9700 µM | 7800 µM | 3550 µM | > 10000 µM | > 3570 µM | 4640 µM | > 10000 µM | > 10000 µM | – | – | – | – | – | – | – | – | – | – |
| O=c1[nH]c(Br)nc2n[nH]nc12 | > 100 µM | > 100 µM | > 100 µM | > 100 µM | 94.8 µM | > 100 µM | > 100 µM | > 100 µM | 44.3 µM | > 100 µM | – | – | – | – | – | – | – | – | – | – |
